According to BigSolDB 2.1:

O=C(O)c1cccc(O)c1O
solubility (mole fraction)
Conditions	278.15 K	283.15 K	288.15 K	293.15 K	298.15 K	303.15 K	308.15 K	313.15 K	318.15 K
in acetone	0.0969	0.0987	0.101	0.105	0.108	0.113	0.116	0.121	0.127
in acetonitrile	0.00923	0.0101	0.0108	0.0115	0.013	0.0147	0.0158	0.0174	0.0198
in ethanol	0.0838	0.0855	0.0884	0.0907	0.0944	0.0973	0.101	0.105	0.11
in ethyl acetate	0.0459	0.048	0.0513	0.0547	0.059	0.0613	0.066	0.0719	0.0761
in ethyl formate	0.0232	0.0245	0.0258	0.0277	0.0301	0.0321	0.0351	0.0374	0.0411
in isopentanol	0.0569	0.0605	0.064	0.067	0.0709	0.0744	0.0803	0.0859	0.0904
in isopropanol	0.0697	0.0727	0.0764	0.0824	0.0879	0.0902	0.0976	0.103	0.11
in isopropyl acetate	0.0426	0.045	0.0494	0.0532	0.0568	0.0602	0.0644	0.0696	0.0728
in methyl acetate	0.0466	0.0493	0.0529	0.0571	0.0594	0.0621	0.0665	0.0726	0.0764
in n-butanol	0.0653	0.0683	0.0706	0.0737	0.0766	0.0806	0.0853	0.0903	0.0952
in n-propanol	0.0664	0.07	0.0727	0.0761	0.0788	0.084	0.0873	0.0915	0.0977
in n-propyl acetate	0.0454	0.048	0.0504	0.0534	0.0564	0.0581	0.0615	0.0672	0.0721
